The test system of one assay is HDAC (A549 cells). Put plainly: whole cell deacetylase (HDAC) assay in A549 cells with Boc-Lys(Ac)-AMC. Format: cell-based, human. The note with it: pre-incubated with inhibitors 16 hours, mean of at least 2 experiments. On the procedure: (§1) Freshly trypsinized cells were dispensed into 96-well black Costar E1A/RIA plates (Corning Inc., Corning, N.Y.). Small molecule substrate Boc-Lys(Ac)-AMC (Bachem Biosciences Inc., King of Prussia, Philadelphia) was added to cell suspension with the final concentration of 300 uM. Cells were placed in 37° C. incubator with 5% CO2 for 90 minutes. Reaction was stopped by adding a freshly prepared Flouor-de-Lys™ deleveloper (Biomol, Plymouth Meeting, Philadelphia) with 1 uM TSA (Biomol) in assay buffer (25 mM Tris, HCl pH8.0, 137 mM NaCl, 2.7 mM KCl, 1 mM MgCl2) plus 1% NP-40. With the presence of 1% NP-40, both excellular and intracellular HDAC activity was measured in cultured cells altogether.
(§2) HDAC enzyme assay in intact cells was carried out as described in Example 3.

The subject of another assay is HDAC (Du145 cells). The experiment in a line: whole cell deacetylase (HDAC) assay in Du145 cells with Boc-Lys(Ac)-AMC. Format: cell-based, human. The note with it: pre-incubated with inhibitors 16 hours, mean of at least 2 experiments. The method, then: as §1, §2
The test system of the next assay is HDAC (HCT116 cells). Put plainly: whole cell deacetylase (HDAC) assay in HCT116 cells with Boc-Lys(Ac)-AMC. Format: cell-based, human. To be noted: pre-incubated with inhibitors 16 hours, mean of at least 2 experiments. The method, then: as §1, §2
Cultured HCT116 cells were counted and distributed to each well of the 96-well plate. […] After addition of Sirtuin substrate (Fluor-de-Lys-SirT1, 500 uM) or HDAC substrate Boc-Lys(Ac)-AMC (300 uM), the cells are further incubated for an additional 2 hours. Reaction was stopped and read as described in Examples 3 and 6.

Another assay deals with HDAC (293T cells). Put plainly: whole cell deacetylase (HDAC) assay in 293T cells with Boc-Lys(Ac)-AMC. Format: cell-based, human. To be noted: pre-incubated with inhibitors 16 hours, mean of at least 2 experiments. The method, then:
as §1, §2

A further assay relates to HDAC (Jurkat T cells). The experiment in a line: whole cell deacetylase (HDAC) assay in Jurkat T cells with Boc-Lys(Ac)-AMC. Format: cell-based, human. The note with it: pre-incubated with inhibitors 16 hours, mean of at least 2 experiments. The method, then: as §1, §2
The subject of another assay is HDAC (Panc-1 cells). Put plainly: whole cell deacetylase (HDAC) assay in Panc-1 cells with Boc-Lys(Ac)-AMC. Format: cell-based, human. The note with it: pre-incubated with inhibitors 16 hours, mean of at least 2 experiments. On the procedure: as §1, §2
A further assay concerns the target T1, recombinant Sirt1 (Homo sapiens, UniProt Q96EB6).
T1 construct: purchased Biomol
T1 sequence (Q96EB6 1-747): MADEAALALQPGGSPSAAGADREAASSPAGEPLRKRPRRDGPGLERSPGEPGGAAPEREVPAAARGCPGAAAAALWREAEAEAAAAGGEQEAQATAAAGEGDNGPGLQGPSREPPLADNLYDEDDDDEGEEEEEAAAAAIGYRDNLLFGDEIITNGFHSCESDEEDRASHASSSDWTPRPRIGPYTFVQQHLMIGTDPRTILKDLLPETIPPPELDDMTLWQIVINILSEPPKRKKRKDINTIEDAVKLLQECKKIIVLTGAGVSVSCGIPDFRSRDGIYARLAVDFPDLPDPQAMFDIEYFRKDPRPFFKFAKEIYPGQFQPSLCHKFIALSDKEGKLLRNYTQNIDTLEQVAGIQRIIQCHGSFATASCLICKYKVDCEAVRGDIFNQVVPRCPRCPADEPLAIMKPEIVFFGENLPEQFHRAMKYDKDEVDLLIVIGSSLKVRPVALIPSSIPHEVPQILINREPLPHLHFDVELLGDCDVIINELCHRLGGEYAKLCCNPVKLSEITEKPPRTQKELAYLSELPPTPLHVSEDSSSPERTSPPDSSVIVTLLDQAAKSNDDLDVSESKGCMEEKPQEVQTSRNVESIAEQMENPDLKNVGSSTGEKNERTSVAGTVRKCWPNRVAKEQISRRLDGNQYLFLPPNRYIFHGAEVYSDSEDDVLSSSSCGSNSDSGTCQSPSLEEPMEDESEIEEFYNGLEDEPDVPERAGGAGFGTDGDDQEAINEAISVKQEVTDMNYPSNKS
Put plainly: recombinant Sirt1 enzyme assay in vitro (Fluor-de-Lys-SirT1 substrate). Format: biochemical. To be noted: TSA up to 10 uM. The source says:
(§3) Human SirT1, 2, 3 recombinant enzymes were purchased from Biomol (Biomol, Plymouth Meeting, Philadelphia).
(§4) Reaction is read as described in Example 3.

A further assay has as its target T2, recombinant Sirt2 (Homo sapiens, UniProt Q8IXJ6).
T2 construct: purchased Biomol
T2 sequence (Q8IXJ6 1-389): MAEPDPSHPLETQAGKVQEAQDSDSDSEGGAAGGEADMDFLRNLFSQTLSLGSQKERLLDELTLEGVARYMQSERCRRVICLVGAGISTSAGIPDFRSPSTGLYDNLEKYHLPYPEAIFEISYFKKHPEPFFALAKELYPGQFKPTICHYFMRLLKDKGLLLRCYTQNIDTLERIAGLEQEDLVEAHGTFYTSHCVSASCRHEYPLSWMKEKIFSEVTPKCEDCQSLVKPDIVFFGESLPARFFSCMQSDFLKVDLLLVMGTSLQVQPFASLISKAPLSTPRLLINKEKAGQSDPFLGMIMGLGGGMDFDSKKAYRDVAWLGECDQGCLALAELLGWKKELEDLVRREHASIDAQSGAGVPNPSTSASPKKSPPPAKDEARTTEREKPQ
Put plainly: recombinant Sirt2 enzyme assay in vitro (Fluor-de-Lys-SirT2 substrate). Format: biochemical.
Text: as §3, §4

For another assay, the target named is T3, recombinant Sirt3 (Homo sapiens, UniProt Q9NTG7).
T3 construct: purchased Biomol
T3 sequence (Q9NTG7 1-399): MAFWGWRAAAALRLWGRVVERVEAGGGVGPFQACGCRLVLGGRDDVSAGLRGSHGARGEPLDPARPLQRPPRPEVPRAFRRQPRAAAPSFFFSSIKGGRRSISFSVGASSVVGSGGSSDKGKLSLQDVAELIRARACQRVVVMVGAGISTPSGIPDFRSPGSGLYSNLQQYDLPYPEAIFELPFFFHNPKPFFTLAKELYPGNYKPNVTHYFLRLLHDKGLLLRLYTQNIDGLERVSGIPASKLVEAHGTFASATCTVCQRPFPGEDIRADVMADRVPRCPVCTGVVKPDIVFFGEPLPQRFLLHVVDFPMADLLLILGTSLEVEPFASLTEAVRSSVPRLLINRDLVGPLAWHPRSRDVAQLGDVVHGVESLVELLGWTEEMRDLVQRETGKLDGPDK
The experiment in a line: recombinant Sirt3 enzyme assay in vitro (Fluor-de-Lys-SirT2 substrate). Format: biochemical.
Text: as §3, §4

The target in a further assay is T4, SirT1 (HCT116 cells) (Homo sapiens, UniProt Q96EB6).
T4 construct: endogenous in cells; host or cells: HCT116
T4 sequence (Q96EB6 1-747): T1 sequence (Q96EB6 1-747)
The experiment in a line: whole cell sirtuin (SirT1) activity in HCT116 cells with Fluor-de-Lys-SirT1 substrate. Format: cell-based. The note with it: HCT116 cells; 1.5 hours pre-incubation; Fluor-de-Lys-SirT1 500 uM. An excerpt: Cultured cells (HCT116) were trypsinized and counted by trypan blue exclusion. Live cells (2×10^5) were distributed to each well of the 96-well plate. […] Independently, we fixed concentrations of either Fluor-de-Lys-SirT1 substrate or Fluor-de-Lys-SirT2 in whole cells and analyzed the effect of exogeneous NAD+ concentration on whole cell sirtuin activity (FIG. 7b). […] Therefore the reading was done immediately after stopping.
Cultured HCT116 cells were counted and distributed to each well of the 96-well plate. […] After addition of Sirtuin substrate (Fluor-de-Lys-SirT1, 500 uM) or HDAC substrate Boc-Lys(Ac)-AMC (300 uM), the cells are further incubated for an additional 2 hours. Reaction was stopped and read as described in Examples 3 and 6. […] This observation is consistent with our finding in Example 7 that TSA can not inhibit class III (Sirtuins) in vitro.

In assay [1] the target is T5, SirT1 (mouse white blood cells) (Mus musculus, UniProt Q923E4).
T5 construct: from tissue; host or cells: mouse white blood cells
T5 sequence (Q923E4 1-737): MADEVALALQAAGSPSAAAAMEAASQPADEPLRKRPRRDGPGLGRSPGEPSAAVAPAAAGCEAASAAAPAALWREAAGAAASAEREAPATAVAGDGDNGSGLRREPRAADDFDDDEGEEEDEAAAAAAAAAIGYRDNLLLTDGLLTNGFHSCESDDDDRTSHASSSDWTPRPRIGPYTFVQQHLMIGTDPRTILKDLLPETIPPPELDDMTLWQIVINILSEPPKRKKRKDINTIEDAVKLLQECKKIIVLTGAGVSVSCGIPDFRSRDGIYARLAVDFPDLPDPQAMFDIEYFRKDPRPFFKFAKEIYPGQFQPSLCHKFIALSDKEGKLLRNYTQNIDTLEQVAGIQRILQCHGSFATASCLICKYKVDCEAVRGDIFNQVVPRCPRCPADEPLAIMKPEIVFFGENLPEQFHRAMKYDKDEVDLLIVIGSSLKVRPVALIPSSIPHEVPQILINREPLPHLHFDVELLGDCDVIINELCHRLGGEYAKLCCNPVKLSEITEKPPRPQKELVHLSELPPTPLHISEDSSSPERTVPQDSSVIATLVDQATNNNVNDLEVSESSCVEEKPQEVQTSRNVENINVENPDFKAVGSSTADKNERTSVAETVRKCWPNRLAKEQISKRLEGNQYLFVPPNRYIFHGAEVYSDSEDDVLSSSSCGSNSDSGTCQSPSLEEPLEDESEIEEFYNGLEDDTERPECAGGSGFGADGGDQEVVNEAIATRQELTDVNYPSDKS
The experiment in a line: ex vivo whole cell Sirt1 activity in mouse white blood cells. Format: cell-based. To be noted: 90 minute incubation, 200 uM Fluor-de-Lys Sirt1. The method, then:
Mouse blood was collected in heparin tubes. Erythrocytes were lysed with five volumes of Erythrocyte Lysis buffer (EL, Qiagen Canada Inc, Mississauga, Ontario). White blood cells were recovered by centrifugation (400×g for 5 min), washed and resuspended in RPMI (+10% FBS), then counted. […] After 90 minute incubation, reaction was stopped with one volume of assay buffer (50 mM Tris-Ci pH 8.0, 137 mM NaCl, 2.7 mM KCl, 1 mM MgCl2) supplemented with 1× Developer II (BioMol, Plymouth Meeting, Philadelphia) and 1% NP40.

Consider `Nc1ccccc1NC(=O)c1ccc(CNC(=O)OCc2cccnc2)cc1` [MS-275], for which the IC50 with HDAC (A549 cells) stood at 400 nM; in the assay on HDAC (Du145 cells), 300 nM; with HDAC (HCT116 cells), 3000 nM; with HDAC (293T cells), 2000 nM; in the assay with HDAC (Jurkat T cells), 300 nM; in the assay on HDAC (Panc-1 cells) it was 500 nM.
For the compound `Cc1ccc(C(=O)Nc2ccc(S(=O)(=O)O)c3cc(S(=O)(=O)O)cc(S(=O)(=O)O)c23)cc1NC(=O)c1cccc(NC(=O)Nc2cccc(C(=O)Nc3cc(C(=O)Nc4ccc(S(=O)(=O)O)c5cc(S(=O)(=O)O)cc(S(=O)(=O)O)c45)ccc3C)c2)c1` [suramin], the “inhibition of recombinant Sirt1 in vitro” value on recombinant Sirt1 was “inhibits”. In addition, the “inhibition of recombinant Sirt2 in vitro” value at recombinant Sirt2 (TSA up to 10 uM) was “inhibits”. Besides, the IC50 was 14000 nM at recombinant Sirt2 (substrate FldSirt2, 45 minutes, read-out: IC50 against recombinant Sirt2) and 575000 nM at recombinant Sirt3 (substrate FldSirt2, 45 minutes, read-out: IC50 against recombinant Sirt3). Further, the “inhibition of recombinant SirT3 in vitro” value on recombinant Sirt3 was “inhibits”. Besides, the “inhibition of whole cell SirT1 activity” value on SirT1 (HCT116 cells) is reported as “inihibits whole cell SirT1 activity in a dose-dependent manner”. In addition, the “inhibition of SirT1 in whole mouse white blood cells” value in assay [1] was “inhibits SirT1 enzymes in whole white blood cells”.
